Results from patent publication US20070099931A1, “Pharmaceutical dosage forms and compositions” (Wyeth, priority 2004, published 2007).
In brackets after ≈: the same amount, converted by molar mass.

Columns and labels:
Solubility in water = assay type: physicochemical; conditions: 25° C.
5-HT1A receptor [1] = target: T1, 5-HT1A receptor (Homo sapiens, UniProt P08908); conditions: in vitro; cited from earlier work
T1 sequence (P08908 1-422): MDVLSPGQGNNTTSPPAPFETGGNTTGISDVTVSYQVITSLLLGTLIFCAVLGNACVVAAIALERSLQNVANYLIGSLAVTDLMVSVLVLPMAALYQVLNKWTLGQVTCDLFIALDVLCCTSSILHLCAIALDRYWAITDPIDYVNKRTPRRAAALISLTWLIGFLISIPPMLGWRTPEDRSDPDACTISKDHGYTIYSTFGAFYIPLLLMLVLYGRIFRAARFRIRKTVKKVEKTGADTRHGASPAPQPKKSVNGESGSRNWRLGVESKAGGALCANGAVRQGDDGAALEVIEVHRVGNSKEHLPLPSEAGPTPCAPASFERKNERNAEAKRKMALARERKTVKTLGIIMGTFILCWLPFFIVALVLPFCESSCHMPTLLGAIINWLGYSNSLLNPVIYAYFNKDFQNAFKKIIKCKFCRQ

[2] = system: hippocampal extracellular 5-HT; conditions: cited from earlier work
[3] = system: glutamate and acetylcholine release; conditions: dentate gyrus of the hippocampus; cited from earlier work
5-HT1A receptor [4] = conditions: chronic administration; cited from earlier work
[5] = system: 5-HT1A agonist discriminative stimulus cue; conditions: 0.01-1 mg/kg im; cited from earlier work
[6] = aged rhesus monkeys, optimal dose 1 mg/kg po; cited from earlier work
[7] = marmosets, 2 mg/kg im; cited from earlier work

Compound: C[C@H](CN(C(=O)c1ccc(C#N)cc1)c1ccccn1)N1CCN(c2cccc3c2OCCO3)CC1 [lecozotan, 4-cyano-N-{(2R)-2-[4-(2,3-dihydro-benzo[1,4]dioxin-5-yl)-piperazin-1-yl]-propyl}-N-pyridin-2-yl-benzamide]
- solubility (Solubility in water): ~51 mg/mL (≈ 105 mM)
- 5-HT1A receptor binding and intrinsic activity (5-HT1A receptor [1]): potent and selective 5-HT1A receptor antagonist
- effect alone on hippocampal extracellular 5-HT ([2]; doses 10-fold higher than 0.3 mg/kg sc): had no effects alone
- effect on decrease in hippocampal extracellular 5-HT induced by 8 OH-DPAT (0.3 mg/kg sc) ([2]; lecozotan 0.3 mg/kg sc): antagonized the decrease in hippocampal extracellular 5-HT
- potassium chloride-stimulated release of glutamate and acetylcholine [3]: significantly potentiated
- 5-HT1A receptor tolerance or desensitization (5-HT1A receptor [4]): did not induce 5-HT1A receptor tolerance or desensitization
- blockade of the 5-HT1A agonist discriminative stimulus cue [5]: dose-related blockade
- substitution for 8-OH-DPAT [5]: did not substitute for 8-OH-DPAT
- task performance efficiency [6]: significant improvement in task performance efficiency
- learning deficits induced by specific cholinergic lesions of the hippocampus [7]: reversed
- learning deficits induced by the glutamatergic antagonist MK-801 [7]: reversed
